How the values were obtained:
[1] = biological target: T1, GWT1 gene product (Gwt1 protein) in membrane fraction (Saccharomyces cerevisiae, UniProt P47026); assay: acylated GPI detection system (GPI acylation assay, TLC of GlcN-(acyl)PI); type: biochemical, S. cerevisiae; conditions: UDP-[14C]GlcNAc, TLC/autoradiography, FIGS. 3 and 4
T1 construct: made in house; host or cells: S. cerevisiae Δgwt1 strain carrying the YEp352GAPIIClaIΔSal-GWT1 overexpression plasmid; total membrane fraction
Description: Wild-type S. cerevisiae strain, the GWT1 gene-deficient strain Δgwt1, and the strain Δgwt1 into which the GWT1 overexpression plasmid was introduced were each cultured in 100 ml of YPD medium shaken at 24° C., and then harvested in the middle logarithmic growth phase (0D600=1˜3). The fungal cells were washed with TM buffer (50 mM Tris-HCl (pH 7.5) and 2 mM MgCl2), and then suspended in 2 ml of TM buffer+protease inhibitor (1 tablet of Complete™, protease inhibitor, (Roche)/25 ml). 1.5 ml of glass beads was added to the suspension. The mixture was vortexed for 30 seconds, and then placed on ice for 30 seconds. These procedures were repeated ten times to disrupt the fungal cells. The cell homogenate was transferred into a new tube, and centrifuged at 1000 g at 4° C. for five minutes to precipitate the glass beads and undisrupted fungal cells. The supernatant was transferred to another tube, and centrifuged at 13 000g at 4° C. for 20 minutes to precipitate the membrane fraction comprising organelles (total membrane fraction). The resulting precipitate was used as the membrane fraction.
The membrane fraction preparation (300 μg protein) was diluted with a buffer consisting of 50 mM Tris-HCl (pH7.5), 2 mM MgCl2, 2 mM MnCl2, 1 mM ATP, 1 mM Coenzyme A, 21 μg/ml tunicamycin, 10 μM nikkomycin Z, and 0.5 mM Dithiothreitol. The solution was adjusted to a total of 140 μl for use as a reaction solution. After incubating the solution at 24° C. for 15 minutes, 15 μCi UDP-[^14C]GlcNAc was added to the tube and then incubated at 24° C. for another one hour. 1 ml of chloroform:methanol (1:2) was added to the solution and stirred to stop the reaction. Then, lipid was extracted from the solution, dried, and desalted by butanol extraction. Acylated GPI (GlcN-(acyl)PI), non-acylated GPI (GlcN-PI), and GPI which was neither acylated nor deacylated (GlcNAc-PI) were separated by thin-layer chromatography (HCl3/CH3OH/1 M NH4OH (10:10:3)). Each spot was detected by autoradiography. […]

GWT1 gene products = conditions: reporter system reflecting the activity of the GWT1 gene products; cited from earlier work

T1 sequence (P47026 whole entry): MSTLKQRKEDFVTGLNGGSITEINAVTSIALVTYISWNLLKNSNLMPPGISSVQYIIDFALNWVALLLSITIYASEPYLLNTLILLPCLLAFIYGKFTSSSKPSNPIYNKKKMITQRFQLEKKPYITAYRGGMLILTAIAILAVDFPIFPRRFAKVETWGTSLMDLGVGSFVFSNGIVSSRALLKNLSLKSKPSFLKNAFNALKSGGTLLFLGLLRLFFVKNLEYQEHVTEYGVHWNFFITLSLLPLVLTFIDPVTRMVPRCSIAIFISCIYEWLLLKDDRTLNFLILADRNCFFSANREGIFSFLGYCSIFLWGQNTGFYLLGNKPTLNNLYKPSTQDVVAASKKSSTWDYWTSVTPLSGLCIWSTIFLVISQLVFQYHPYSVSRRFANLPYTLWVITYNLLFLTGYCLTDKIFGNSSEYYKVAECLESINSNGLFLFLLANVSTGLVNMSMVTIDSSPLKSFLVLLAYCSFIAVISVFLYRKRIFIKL

SMILES | spot intensity of acylated GPI (GlcN-(acyl)PI) [1] | inhibitory activity IC50 (Table 1 in WO 02/04626) (GWT1 gene products)
CCCCc1ccc(Cc2nccc3ccccc23)cc1 [Example B2, 1-(4-butylbenzyl)isoquinoline] | dose-dependent decrease | –
CC(=O)N(C)CCCc1ccc(Cc2nccc3ccccc23)cc1 [Example B73, N-(3-(4-(1-isoquinolylmethyl)phenyl)propyl)-N-methylacetamide] | not observed to decrease | 50 µg/mL
CCCCc1ccc(Cc2nccc3ccccc23)c(O)c1 [Example B85, 5-butyl-2-(1-isoquinolylmethyl)phenol] | dose-dependent decrease | –
